Assay results as given in patent US20230293565A1, “USE OF WNT/BETA-CATENIN PATHWAY INHIBITORS TO BLOCK REPLICATION OF SARS-COV-2 AND OTHER PATHOGENIC VIRUSES” (THE GOVERNORS OF THE UNIVERSITY OF ALBERTA, priority 2020, published 2023).
Entries after “also recorded” stand apart in the source; their conditions may differ. Where two headings read alike, the source gives them in different places.

Tests used:
Vero cells = type: cell-based, African green monkey; details: 1 μM (Pyrvinium 100 nM), 48 hours
Mayaro virus (MAYV) = type: cell-based; details: A549, 1 μM, 24 h pre-treatment, 0.1 MOI
HCOV-NL63 = HCOV-NL63 plaque assay in Calu3 cells; type: cell-based; details: Calu3 treated 24 h, MOI 0.5, 24 h
Experimental: (§1) FIG. 16. Effect of Wnt/β-catenin inhibitors on other human coronaviruses (HCOVs). Calu3 cells were treated with the indicated concentrations of Wnt/β-catenin inhibitors for 24 hours and then infected with HCOVs NL63 or 229E MOI of 0.5). Twenty-four hours later, media were collected and subjected to plaque assay to determine viral titers. Average titers from there independent experiments are shown.
(§2) Because Wnt/β-catenin inhibitors enhance the IFN response, we hypothesized that these drugs would be effective against other human coronaviruses and potentially other pathogenic RNA viruses such as flaviviruses and alphaviruses. To test this theory, Calu-3 and A549 cells treated with Wnt/β-catenin inhibitors or DMSO for 24 hours were infected with two different seasonal human coronavirus HCOV-NL63 and HCOV-229E for 24 hours or Zika virus or Mayaro virus for 48 and 24 hours respectively.

[1] = test system: SARS-CoV-2 (CANADA/VIDO01/2020 strain); type: cell-based
Zika virus (ZIKV) = test: Zika virus plaque assay and qRT-PCR in A549 cells; type: cell-based; details: A549, 1 μM, 24 h pre-treatment, 0.1 MOI
Experimental: FIG. 17. Wnt/β-catenin inhibitors reduce replication of other RNA viruses. A549 cells were treated with Wnt/β-catenin inhibitors (1 μM) or DMSO alone for 24 hours, after which the cells were infected with 0.1 MOI of Zika virus (ZIKV) or Mayaro virus (MAYV). Forty-eight hours later, virus-containing media were subjected to plaque assays and total RNA extracted from cells was subjected to qRT-PCR to determine relative levels of viral RNA. Average viral titers (A,C) and genomic RNA levels (B, D) from drug-treated cells from 3 independent experiments are shown. Error bars represent standard error of the mean. *, P<0.05; **, P<0.01; N.S. (not significant).
as §2

HCOV-229E = HCOV-229E plaque assay in Calu3 cells; type: cell-based
Experimental: as §1, §2

[2] = test system: type III (IFNλ2) interferon; type: cell-based, human; details: A549 treated 24 h, Sendai virus 8 and 16 hours

With `O=C([O-])CCN1C(=O)/C(=C/c2ccc(-c3ccc([N+](=O)[O-])cc3)o2)SC1=S.[K+]` [KYA1797K] the “density of peroxisomes in Vero cells” value (Vero cells) was “increases peroxisome density”, the “replication of Mayaro virus” value (Mayaro virus (MAYV)) was “most potent” and the “titers of HCOV-NL63” value (HCOV-NL63) was “significantly reduced”. For the same compound, the “SARS-CoV-2 replication, drug added 6-hours post-infection (in words)” value [1] was “effectively block; also recorded: reduce SARS-CoV-2 replication”, the “SARS-CoV-2 replication, drug added 12-hours post-infection (in words)” value [1] was “reduce SARS-CoV-2 replication” and the “replication of Zika virus” value (Zika virus (ZIKV)) was “most potent”. The “titers of HCOV-229E” value (HCOV-229E; Calu3 treated 24 h, MOI 0.5, 24 h) was “significantly reduced”.

`Cc1cc(-c2ncc(CC(=O)Nc3ccc(-c4cnccn4)cn3)cc2C)ccn1` [LGK-974] was tested, and the “SARS-CoV-2 replication, drug added 6-hours post-infection (in words)” value [1] was “effectively block”.

`Cc1cc(/C=C/c2ccc3cc(N(C)C)ccc3[n+]2C)c(C)n1-c1ccccc1` [Pyrvinium] was tested, and the “titers of HCOV-NL63” value (HCOV-NL63) was “significantly reduced”, the “SARS-CoV-2 replication, drug added 6-hours post-infection (in words)” value [1] was “effectively block; also recorded: reduce SARS-CoV-2 replication” and the “SARS-CoV-2 replication, drug added 12-hours post-infection (in words)” value [1] was “reduce SARS-CoV-2 replication”. For the same compound, the “induction of type III IFN (IFNλ2 transcripts)” value [2] was “much more dramatic effects” and the “titers of HCOV-229E” value (HCOV-229E) was “significantly reduced”.

With iCRT-14 the “induction of type III IFN (IFNλ2 transcripts)” value [2] was “much more dramatic effects”.
